From patent US11878965B2, “Inhibitors of peptidylarginine deiminases” (Gilead Sciences, Inc., priority 2020, dated 2024)

Target: human PAD4 (Homo sapiens (Human), UniProt Q9UM07)
Assay: In Vitro PAD4 BAEE Biochemical Assay
Conditions: human PAD4, BAEE substrate; 5 nM PAD4, 2 mM calcium chloride, 3 mM BAEE; geometric mean of multiple experiments
Protocol: The PCR product was ligated into linearized pET-SUMO vector (Invitrogen, Carlsbad, CA), which is part of the Champion™ pET SUMO Protein Expression System. After sequence verification for the correct orientation, the pET-SUMO-hPAD4 expression plasmid was transformed into BL21(DE3) cells.
E. Coli BL21(DE3) cells were inoculated in LB medium with kanamycin at 37° C. until A600 nm reached about 0.5. Protein expression was induced by addition of 0.5 mM IPTG (final) and continued overnight at 16° C. at 220 rpm.
Cells were harvested by centrifugation at 5000 rpm for 10 minutes at 4° C. The pellet was resuspended in 300 ml lysis buffer (20 mM Tris-HCl, pH 8.0, 1 mM EDTA, 500 mM NaCl, 1 mM (tris(2-carboxyethyl)phosphine) (TCEP), 10% glycerol, and 1% Triton X100 and EDTA free protease inhibitor) and lysed by 3× passage through a microfluidizer (Microfluidics, Newton, MA) at 18,000 psi. The cell lysate was clarified by centrifugation at 30,000 rpm for 60 minutes at 4° C. The supernatant was applied to a 5 ml Ni-HP (GE HealthCare Cat #17524701) column preequilibrated in Ni-A buffer (20 mM Tris-HCl, pH 8.0, 20 mM Imidazole, 1 mM TCEP, 10% glycerol, and 400 mM NaCl). Bound protein was eluted with a 0-100% linear gradient of 100 mL Ni-B buffer (Ni A buffer+0.5 M Imidazole).
The His-Sumo tag was cleaved using sumo protease (Thermo Fisher Cat #: 12588018) while dialyzing in buffer (20 mM Tris-HCl, pH 8.0, 1 mM EDTA, 500 mM NaCl, 1 mM TCEP, 10% glycerol). The protein was then reloaded onto a Ni-HP column for a reverse purification step and recovered in flow through fraction. The protein with His-Sumo tag removed was then polished using a 16/60 Superdex-200 gel filtration column with gel filtration buffer (20 mM Tris pH 8.0, NaCl 400 mM and 1 mM TCEP). The fractions containing the protein were pulled and frozen at −80° C.
In Vitro PAD4 BAEE Biochemical Assay
The enzymatic activity of human PAD4 was monitored in a biochemical assay in the presence or absence of compounds using the small peptidyl arginine mimic BAEE (Nα-Benzoyl-L-arginine ethyl ester hydrochloride) as substrate. PAD4 activity led to deimination of BAEE and release of ammonia. Levels of ammonia were monitored by using an amine coupling reaction and were indicative of PAD4 enzymatic activity.
One hundred nanoliters of test compounds dissolved in DMSO at various concentrations were dispensed into a 384-well black OptiPlate using a Labcyte Echo instrument. Ten microliters of a solution of recombinant PAD4 and calcium chloride diluted in PAD4 assay buffer (50 mM MOPS [3-(N-morpholino) propanesulfonic acid], pH 7.6; 50 mM sodium chloride; 0.05% Tween-20; 2 mM dithiothreitol) was added to the compound-containing plate and was incubated for 30 minutes at 25° C. Ten microliters of a solution of BAEE (Sigma-Aldrich #B4500) diluted in PAD4 assay buffer was then added to start the reaction. Final concentrations were 5 nM PAD4, 2 mM calcium chloride, and 3 mM BAEE. The reaction mixture was incubated at 25° C. for 2 hours and was stopped with the addition of 10 microliters of a solution of 75 mM EDTA (Ethylenediaminetetraacetic acid) in PAD4 assay buffer. Thirty microliters of detection solution (5 mM o-phthalaldehyde, 50 mM MOPS [3-(N-morpholino) propanesulfonic acid], pH 7.6; 50 mM sodium chloride; 0.05% Tween-20; 5 mM dithiothreitol) was then added and the reaction was incubated for 1 hour at 25° C. The level of fluorescent thiol-substituted isoindole resulting from the reaction of ammonia, o-phthalaldehyde, and dithiothreitol was measured on an Envision plate reader (PerkinElmer) with 405 nm excitation and 535 nm emission.

human PAD4, sequence (Q9UM07 2-663): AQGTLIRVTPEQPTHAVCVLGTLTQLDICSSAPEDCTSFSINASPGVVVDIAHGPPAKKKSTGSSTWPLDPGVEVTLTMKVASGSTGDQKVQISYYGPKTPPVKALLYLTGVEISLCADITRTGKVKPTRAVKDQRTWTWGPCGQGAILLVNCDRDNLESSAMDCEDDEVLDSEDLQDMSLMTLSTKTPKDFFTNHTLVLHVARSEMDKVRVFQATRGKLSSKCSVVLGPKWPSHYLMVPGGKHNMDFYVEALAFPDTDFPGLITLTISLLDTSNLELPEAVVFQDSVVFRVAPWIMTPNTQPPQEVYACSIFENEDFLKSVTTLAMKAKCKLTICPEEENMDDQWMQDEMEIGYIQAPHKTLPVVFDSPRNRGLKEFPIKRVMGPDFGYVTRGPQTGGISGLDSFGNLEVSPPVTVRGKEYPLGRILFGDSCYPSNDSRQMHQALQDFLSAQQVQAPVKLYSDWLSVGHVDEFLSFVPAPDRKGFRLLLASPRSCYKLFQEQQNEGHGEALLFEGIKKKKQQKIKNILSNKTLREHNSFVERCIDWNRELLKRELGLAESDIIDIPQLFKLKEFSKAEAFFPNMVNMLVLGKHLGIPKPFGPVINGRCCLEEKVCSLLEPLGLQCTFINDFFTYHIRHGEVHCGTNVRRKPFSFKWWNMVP

| Compound | IC50 [nM] |
| --- | --- |
| CNC(=O)N(C)c1ccc2cc(-c3nc4cc(C(=O)N5CCC[C@@H](N)C5)cc(OC)c4n3C)n(CC3CC3)c2n1 [Example 116, (R)-1-(2-(5-(3-aminopiperidine-1-carbonyl)-7-methoxy-1-methyl-1H-benzo[d]imidazol-2-yl)-1-(cyclopropylmethyl)-1H-pyrrolo[2,3-b]pyridin-6-yl)-1,3-dimethylurea] | 496 |
| Cc1cc2c(cc1C(=O)N1CCC[C@@H](N)C1)nc(-c1cc3ccc(N(C(F)F)S(C)(=O)=O)nc3n1CC1CC1)n2C [Example 58, (R)-N-(2-(5-(3-aminopiperidine-1-carbonyl)-1,6-dimethyl-1H-benzo[d]imidazol-2-yl)-1-(cyclopropylmethyl)-1H-pyrrolo [2,3-b]pyridin-6-yl)-N-(difluoromethyl) methanesulfonamide] | 4340 |
| COc1cc(C(=O)N2[C@H]3CC[C@@H]2[C@H](N)C3)cc2nc(-c3cc4ccc([C@@H](C)NC(=O)C5(OC)CC5)cc4n3CC3CC3)n(C)c12 [Example 142, N-((R)-1-(2-(5-((1R,2R,4S)-2-amino-7-azabicyclo[2.2.1]heptane-7-carbonyl)-7-methoxy-1-methyl-1H-benzo[d]imidazol-2-yl)-1-(cyclopropylmethyl)-1H-indol-6-yl)ethyl)-1-methoxycyclopropane-1-carboxamide] | 44.5 |
| COc1cc(C(=O)N2[C@H]3CC[C@@H]2[C@H](N)C3)cc2nc(-c3cc4ccc([C@@H](C)NC(=O)N5CC[C@@H](F)C5)cc4n3CC3CC3)n(C)c12 [Example 237, (R)-N-((R)-1-(2-(5-((1R,2R,4S)-2-amino-7-azabicyclo[2.2.1]heptane-7-carbonyl)-7-methoxy-1-methyl-1H-benzo[d]imidazol-2-yl)-1-(cyclopropylmethyl)-1H-indol-6-yl)ethyl)-3-fluoropyrrolidine-1-carboxamide] | 18.5 |
| COc1cc(C(=O)N2CCC[C@@H](N)[C@H]2C)cc2nc(-c3cc4ccc(N(C)S(C)(=O)=O)nc4n3C3CC3)n(C)c12 [Example 47, N-(2-(5-((2R,3R)-3-amino-2-methylpiperidine-1-carbonyl)-7-methoxy-1-methyl-1H-benzo[d]imidazol-2-yl)-1-cyclopropyl-1H-pyrrolo[2,3-b]pyridin-6-yl)-N-methylmethanesulfonamide] | 1730 |

Further molecules by falling IC50, results first:

| IC50 [nM] | Compound |
| --- | --- |
| 50000 | COc1cc(C(=O)N2CC[C@@H]3OCCN[C@@H]3C2)cc2nc(-c3cc4ccc(N(C(F)F)S(C)(=O)=O)nc4n3CC3CC3)n(C3CC3)c12 [Example 69, N-(2-(1-cyclopropyl-7-methoxy-5-((4aR,8aS)-octahydro-2H-pyrido[4,3-b][1,4]oxazine-6-carbonyl)-1H-benzo[d]imidazol-2-yl)-1-(cyclopropylmethyl)-1H-pyrrolo[2,3-b]pyridin-6-yl)-N-(difluoromethyl) methanesulfonamide] |
| 7200 | COc1cc(C(=O)N2CC3CCCC3(N)C2)cc2nc(-c3cc4ccc(N(C(F)F)S(C)(=O)=O)nc4n3CC3CC3)n(C)c12 (stereo not drawn) [Example 73, N-(2-(5-(3a-aminooctahydrocyclopenta[c]pyrrole-2-carbonyl)-7-methoxy-1-methyl-1H-benzo[d]imidazol-2-yl)-1-(cyclopropylmethyl)-1H-pyrrolo[2,3-b]pyridin-6-yl)-N-(difluoromethyl) methanesulfonamide] |
| 1720 | CNC(=O)c1ccc2cc(-c3nc4cc(C(=O)N5C[C@H](N)CC[C@@H]5C)cc(OC)c4n3C)n(CC3CC3)c2n1 [Example 251, 2-(5-((2S,5R)-5-amino-2-methylpiperidine-1-carbonyl)-7-methoxy-1-methyl-1H-benzo[d]imidazol-2-yl)-1-(cyclopropylmethyl)-N-methyl-1H-pyrrolo[2,3-b]pyridine-6-carboxamide] |
| 100 | COc1cc(C(=O)N2C[C@H](N)CCN2C)cc2nc(-c3cc4ccc([C@@H](C)NC(=O)c5ccc(C)nc5C)nc4n3CC3CC3)n(C)c12 [Example 214, N-((R)-1-(2-(5-((R)-5-amino-2-methylhexahydropyridazine-1-carbonyl)-7-methoxy-1-methyl-1H-benzo[d]imidazol-2-yl)-1-(cyclopropylmethyl)-1H-pyrrolo[2,3-b]pyridin-6-yl)ethyl)-2,6-dimethylnicotinamide] |
